# According to patent US12036222B2, “Methods of treating cancers overexpressing CARM1 with EZH2 inhibitors and a PARP inhibitor” (The Wistar Institut of Anatomy and Biology, priority 2018, dated 2024):
# Entries after “also recorded” stand apart in the source; their conditions may differ.
# What was measured:
# TIMP3 = test: qRT-PCR of BAF155Me target gene in cells; format: cell-based, human; conditions: parental and CARM1 knockout A1847 cells, 10 μM GSK126
# Description: FIG. 57 illustrates the relative mRNA expression of BAF155Me target gene TIMP3, which was determined by qRT-PCR. Parental control and CARM1 knockout A1847 cells were treated with 10 μM GSK126 or vehicle controls. *p<0.001. Mean of three independent experiments with SEM.
# RNA was isolated by RNeasy Mini Kit (Qiagen). mRNA relative expression for DAB2, DLC1, and PMAIP was determined using SYBR green 1-step iScript (Bio-Rad) with a Life Technologies QuantStudio 3. The primers were: 5′-[…]-3′ (DAB2 forward (SEQ ID NO: 2)) and 5′-[…]-3′ (DAB2 reverse (SEQ ID NO: 3)); 5′-[…]-3′ (DLC1 forward (SEQ ID NO: 4)) and 5′-[…]-3′ (DLC1 reverse (SEQ ID NO: 5)); 5′-[…]-3′ (NOXA forward (SEQ ID NO: 6)) and 5′-[…]-3′ (NOXA reverse (SEQ ID NO: 7)); and 5′-[…]-3′ (TIMP3 forward (SEQ ID NO: 8)) and 5′-[…]-3′ (TIMP3 reverse (SEQ ID NO: 9)).
# CARM1-expressing tumors = test: Immunohistochemistry and qRT-PCR of dissected CARM1-expressing tumors; format: in vivo, mice
# Description: FIG. 79 illustrates immunohistochemical analysis for serial sections of tumors dissected from the indicated treatment groups where the tumor sections were stained for H3K27Me3, EZH2, cleaved caspase 3, and Ki67. Scale bar=50 μm.
# FIG. 80 illustrates histological scoring (H-score) of the indicated proteins that was calculated for 3 separate fields from 5 tumors from 5 individual mice from each of the indicated groups.
# FIG. 81 illustrates the expression of the indicated EZH2/BAF155 target genes that was determined by qRT-PCR in the tumors dissected from the indicated treatment groups.
# The observed tumor growth suppression in vivo was correlated with the molecular pathways underlying the CARM1-dependent effects of EZH2 inhibition. To do so, immunohistochemical (IHC) analysis was performed for markers of cell proliferation (Ki67), apoptosis (cleaved caspase 3), H3K27Me3 and EZH2. […] Finally, the observed decrease in cell proliferation and increase in apoptosis correlated with the upregulation of the identified CARM1-regulated EZH2/BAF155 target genes such as DAB2, DLC1 and NOXA by the EZH2 inhibitor GSK126 in vivo (FIG. 81).
# TIMP3 promoter = test: ChIP-qPCR at TIMP3 promoter; format: cell-based, human; conditions: A1847 cells, 10 μM GSK126
# Description: FIGS. 62 to 65 illustrate the results of a ChIP analysis in parental control and CARM1 knockout A1847 cells treated with 10 μM GSK126 or vehicle controls. The cells were subjected to ChIP analysis using anti-EZH2 (FIG. 62), anti-H3K27Me3 (FIG. 63), anti-BAF155 (FIG. 64), or anti-RNA Pol II (FIG. 65) antibodies. An isotype-matched IgG was used as a negative control. ChIP products were subjected to qPCR analysis using primers specific for the promoter regions of the human TIMP3 genes. Mean of three independent experiments with SEM.* p<0.001 compared with controls.
# ChIP was performed as described in Tu et al. Developmental Cell(2011) 21:1077-91. The following antibodies were used to perform ChIP: anti-H3K27Me3 (Cell Signaling, Cat. No: 9733), anti-BAF155 (Santa Cruz, Cat. No: sc-9746), anti-RNA polymerase II (Santa Cruz, Cat. No: sc-899) or anti-EZH2 (Cell Signaling, Cat. No: 5246). An isotype matched IgG was used as a negative control. ChIP DNA was analyzed by quantitative PCR against the promoter of the indicated genes using the following primers: DAB2 Forward: 5′-[…]-3′ (SEQ ID NO: 10) and DAB2 Reverse: 5′-[…]-3′ (SEQ ID NO: 11); DLC1 Forward: 5′-[…]-3′ (SEQ ID NO: 12) and DLC1 Reverse: 5′-[…]-3′ (SEQ ID NO: 13); NOXA Forward: 5′-[…]-3′ (SEQ ID NO: 14) and NOXA Reverse: 5′-[…]-3′ (SEQ ID NO: 15); TIMP3 Forward: 5′-[…]-3′ (SEQ ID NO: 16) and TIMP3 Reverse: 5′-[…]-3′ (SEQ ID NO: 17).
# [1] = clinical trials for hematopoietic malignancies; cited from earlier work
# [2] = tested on: orthotopically-transplanted CARM1-expressing tumors; test: Intrabursal orthotopic xenograft model, CARM1-expressing A1847 cells; format: in vivo, NSG mice
# Description: The protocols were approved by the Institutional Animal Care and Use Committee (IACUC). For in vivo experiments, the sample size of 5 mice per group was determined based on the data shown from in vitro experiments. Intrabursal orthotopic xenograft was performed as described in Bitler, et al. Nature Medicine (2015) 21:231-8 and Bitler et al. Cancer Research (2011) 71:6184-94. Briefly, 1×10^6 A1847 parental or A1847 CARM1 knockout cells were unilaterally injected into the ovarian bursa of 6-8-week old female immunocompromised NSG mice (n=5 per group). One week after injection the mice were randomized into two groups and treated with vehicle control (20% captisol) or GSK126 (50 mg/kg daily) for three weeks. At the end of the experiments, tumors were surgically dissected and tumor burden was calculated based on tumor weight. For survival experiments, after stopping the treatment, the mice were followed for mortality or when the tumor burden reached 10% of body weight as determined by The Wistar Institute IACUC guideline.
# EZH2 inhibitors, such as GSK126, are used safely in clinical trials for hematopoietic malignancies (Ribrag et al. Eur J Cancer (2014) 50:197). To determine the effects of EZH2 inhibition in vivo on the growth of CARM1-expressing ovarian tumors, two xenograft models were utilized. […]
structure (smiles),measurement,setting,value
"CC[C@H](C)n1cc(C)c2c(C(=O)NCc3c(C)cc(C)[nH]c3=O)cc(-c3ccc(N4CCNCC4)nc3)cc21 [GSK126, (S)-1-(sec-butyl)-N-((4,6-dimethyl-2-oxo-1,2-dihydropyridin-3-yl)methyl)-3-methyl-6-(6-(piperazin-1-yl)pyridin-3-yl)-1H-indole-4-carboxamide]",expression of BAF155Me target gene TIMP3,TIMP3,downregulated by CARM KO but not by EZH2 inhibitor GSK126
same,EZH2 staining,CARM1-expressing tumors; IHC,did not affect EZH2 staining
same,H3K27Me3 staining,CARM1-expressing tumors; IHC,decreased
same,expression of Ki67,CARM1-expressing tumors; IHC,decreased the expression of Ki67
same,expression of cleaved caspase 3,CARM1-expressing tumors; IHC,increased the expression of cleaved caspase 3
same,"expression of EZH2/BAF155 target genes DAB2, DLC1 and NOXA in vivo",CARM1-expressing tumors; qRT-PCR,upregulation
same,association of BAF155 and Pol II with the TIMP3 promoter,TIMP3 promoter,CARM1 KO but not EZH2 inhibitor GSK126 treatment decreased the association
same,safety in clinical trials,[1],used safely; also recorded: proven safe; also recorded: well-tolerated with limited toxicity
same,growth of CARM1-expressing tumors,"[2]; 50 mg/kg daily i.p., three weeks",significantly inhibited
same,survival of tumor bearing mice,"[2]; followed after stopping treatment, vs controls",significantly improved the survival
